Blank lines part the entries; values can stand above or below the compound they belong to. Activity calls are given as the source filed them. No cut-off for these calls is given here.
Assays:
RAW264.7 [1] = test: Inhibition of P38 phosphorylation in LPS-induced mouse RAW264.7 cells at 20 uM by Western blot analysis; type: cell-based
[2] = target: Transcription factor p65 (Mus musculus) (UniProt Q04207); test: Inhibition of p65 activation in LPS-induced mouse RAW264.7 cells at 20 uM by Western blot analysis; type: cell-based
Sequence of Transcription factor p65 (Mus musculus) (Q04207 whole entry): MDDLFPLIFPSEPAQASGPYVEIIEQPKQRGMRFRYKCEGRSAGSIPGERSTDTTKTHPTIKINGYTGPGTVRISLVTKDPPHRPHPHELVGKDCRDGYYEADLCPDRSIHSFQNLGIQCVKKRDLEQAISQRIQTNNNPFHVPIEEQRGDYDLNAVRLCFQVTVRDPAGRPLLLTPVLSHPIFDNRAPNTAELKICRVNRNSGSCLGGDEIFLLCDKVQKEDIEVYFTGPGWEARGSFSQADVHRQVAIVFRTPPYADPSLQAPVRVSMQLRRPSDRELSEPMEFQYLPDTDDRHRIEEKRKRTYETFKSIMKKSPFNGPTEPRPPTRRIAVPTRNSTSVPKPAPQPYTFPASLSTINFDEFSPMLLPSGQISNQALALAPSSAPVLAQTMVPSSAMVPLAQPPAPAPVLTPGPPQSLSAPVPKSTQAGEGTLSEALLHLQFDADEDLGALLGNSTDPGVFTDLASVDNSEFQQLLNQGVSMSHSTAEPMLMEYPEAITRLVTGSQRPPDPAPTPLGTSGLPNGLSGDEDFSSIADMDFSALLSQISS

RAW264.7 [3] = test: Antiinflammatory activity in LPS-induced mouse RAW264.7 cells assessed as reduction in Ccl2 gene expression by heat map analysis; type: functional, cell-based
Mus musculus [4] = test: Antiinflammatory activity against DSS-induced ulcerative colitis C57BL/6J mouse model assessed as reduction in IL-1beta mRNA expression level in colon at 15 mg/kg, po administered for 8 days by qRT-PCR analysis; type: functional, organism-based; settings: time 8.0 day
Mus musculus [5] = test: Antiinflammatory activity against DSS-induced ulcerative colitis C57BL/6J mouse model assessed as reduction in iNOS mRNA expression level in colon at 15 mg/kg, po administered for 8 days by qRT-PCR analysis; type: functional, organism-based; settings: time 8.0 day
RAW264.7 [6] = test: Antiinflammatory activity in LPS-induced mouse RAW264.7 cells assessed as inhibition of IL-6 production at 20 uM by ELISA; type: functional, cell-based
Mus musculus [7] = test: Antiinflammatory activity against DSS-induced ulcerative colitis C57BL/6J mouse model assessed as reduction in goblet cell loss in colon at 15 mg/kg, po administered for 8 days by alcian blue staining based analysis; type: functional, organism-based; settings: time 8.0 day
Mus musculus [8] = test: Antiinflammatory activity against DSS-induced ulcerative colitis C57BL/6J mouse model assessed as reduction in inflammatory cell infiltration in colon at 15 mg/kg, po administered for 8 days by Hand E staining based histopathological analysis; type: functional, organism-based; settings: time 8.0 day
RAW264.7 [9] = test: Antiinflammatory activity in LPS-induced mouse RAW264.7 cells assessed as reduction in Ccl7 gene expression by heat map analysis; type: functional, cell-based
RAW264.7 [10] = test: Inhibition of NF-kappaB transcriptional activity in LPS-induced mouse RAW264.7 cells at 20 uM by luciferase based assay; type: cell-based
Mus musculus [11] = test: Antiinflammatory activity against DSS-induced ulcerative colitis C57BL/6J mouse model assessed as reduction in Ccl2 mRNA expression level in colon at 15 mg/kg, po administered for 8 days by qRT-PCR analysis; type: functional, organism-based; settings: time 8.0 day
RAW264.7 [12] = test: Antiinflammatory activity in LPS-induced mouse RAW264.7 cells assessed as reduction in Cxcl10 gene expression by heat map analysis; type: functional, cell-based
RAW264.7 [13] = test: Antiinflammatory activity in LPS-induced mouse RAW264.7 cells assessed as reduction in iNOS mRNA expression level at 20 uM by qRT-PCR analysis; type: functional, cell-based
Mus musculus [14] = test: Antiinflammatory activity against DSS-induced ulcerative colitis C57BL/6J mouse model assessed as increase in OCCLUDIN protein level in colon at 15 mg/kg, po administered for 8 days by Western blot analysis; type: functional, organism-based; settings: time 8.0 day
Mus musculus [15] = test: Antiinflammatory activity against DSS-induced ulcerative colitis C57BL/6J mouse model assessed as increase in […] protein level in colon at 15 mg/kg, po administered for 8 days by Western blot analysis; type: functional, organism-based; settings: time 8.0 day
Mus musculus [16] = test: Antiinflammatory activity against DSS-induced ulcerative colitis C57BL/6J mouse model assessed as increase in CLAUDIN-1 protein level in colon at 15 mg/kg, po administered for 8 days by Western blot analysis; type: functional, organism-based; settings: time 8.0 day
Mus musculus [17] = test: Antiinflammatory activity against DSS-induced ulcerative colitis C57BL/6J mouse model assessed as reduction in TNF-alpha mRNA expression level in colon at 15 mg/kg, po administered for 8 days by qRT-PCR analysis; type: functional, organism-based; settings: time 8.0 day
RAW264.7 [18] = test: Antiinflammatory activity in LPS-induced mouse RAW264.7 cells assessed as inhibition of TNF-alpha production at 20 uM by ELISA; type: functional, cell-based
Mus musculus [19] = test: Antiinflammatory activity against DSS-induced ulcerative colitis C57BL/6J mouse model assessed as reduction in H and E histopathological score at 15 mg/kg, po administered for 8 days by H and E staining based analysis; type: functional, organism-based; settings: time 8.0 day
RAW264.7 [20] = test: Inhibition of ERK phosphorylation in LPS-induced mouse RAW264.7 cells at 20 uM by Western blot analysis; type: cell-based
RAW264.7 [21] = test: Antiinflammatory activity in LPS-induced mouse RAW264.7 cells assessed as reduction in IL-1beta gene expression by heat map analysis; type: functional, cell-based
Mus musculus [22] = test: Effect on DSS-induced body weight loss in ulcerative colitis male C57BL/6J mouse model at 15 mg/kg, po administered for 8 days; type: functional, organism-based; settings: time 8.0 day
RAW264.7 [23] = test: Antiinflammatory activity in LPS-induced mouse RAW264.7 cells assessed as reduction in TNF-alpha mRNA expression level at 20 uM by qRT-PCR analysis; type: functional, cell-based
Mus musculus [24] = test: Antiinflammatory activity against DSS-induced ulcerative colitis C57BL/6J mouse model assessed as reduction in intestinal epithelial destruction in colon at 15 mg/kg, po administered for 8 days by Hand E staining based histopathological analysis; type: functional, organism-based; settings: time 8.0 day
RAW264.7 [25] = test: Antiinflammatory activity in LPS-induced mouse RAW264.7 cells assessed as reduction in IL-6 mRNA expression level at 20 uM by qRT-PCR analysis; type: functional, cell-based
RAW264.7 [26] = test: Antiinflammatory activity in LPS-induced mouse RAW264.7 cells assessed as reduction in IL-1beta mRNA expression level at 20 uM by qRT-PCR analysis; type: functional, cell-based
RAW264.7 [27] = test: Antiinflammatory activity in mouse RAW264.7 cells assessed as inhibition of LPS-induced NO production incubated for 24 hrs; type: functional, cell-based; settings: RAW264.7, 24 h
[28] = target: c-Jun N-terminal kinase (Mus musculus) (UniProt Q91Y86+Q9WTU6+Q61831); test: Inhibition of JNK phosphorylation in LPS-induced mouse RAW264.7 cells at 20 uM by Western blot analysis; type: cell-based
Sequence of c-Jun N-terminal kinase (Mus musculus) (Q61831 whole entry, looked up): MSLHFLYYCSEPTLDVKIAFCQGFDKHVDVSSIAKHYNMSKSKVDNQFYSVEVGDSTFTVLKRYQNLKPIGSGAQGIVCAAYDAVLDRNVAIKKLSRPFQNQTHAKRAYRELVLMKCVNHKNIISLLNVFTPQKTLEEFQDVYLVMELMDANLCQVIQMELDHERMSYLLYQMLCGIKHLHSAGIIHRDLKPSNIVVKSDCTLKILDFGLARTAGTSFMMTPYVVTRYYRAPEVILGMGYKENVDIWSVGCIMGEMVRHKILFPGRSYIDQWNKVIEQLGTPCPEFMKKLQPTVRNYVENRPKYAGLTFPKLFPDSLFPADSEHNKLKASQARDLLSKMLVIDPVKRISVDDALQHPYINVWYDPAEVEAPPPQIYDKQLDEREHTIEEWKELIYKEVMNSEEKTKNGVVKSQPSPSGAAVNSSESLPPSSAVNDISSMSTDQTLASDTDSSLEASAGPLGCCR
Sequence of c-Jun N-terminal kinase (Mus musculus) (Q91Y86 whole entry, looked up): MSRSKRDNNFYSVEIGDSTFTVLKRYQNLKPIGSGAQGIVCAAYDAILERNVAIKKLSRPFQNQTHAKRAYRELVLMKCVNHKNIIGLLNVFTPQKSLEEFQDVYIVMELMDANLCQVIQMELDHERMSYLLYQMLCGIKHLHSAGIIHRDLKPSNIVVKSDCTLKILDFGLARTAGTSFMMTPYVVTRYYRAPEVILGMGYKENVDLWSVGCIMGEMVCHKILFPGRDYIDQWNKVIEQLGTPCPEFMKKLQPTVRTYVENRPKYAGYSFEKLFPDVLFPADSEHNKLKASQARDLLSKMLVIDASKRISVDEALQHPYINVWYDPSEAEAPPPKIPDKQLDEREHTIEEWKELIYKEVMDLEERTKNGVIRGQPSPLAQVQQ
Sequence of c-Jun N-terminal kinase (Mus musculus) (Q9WTU6 whole entry, looked up): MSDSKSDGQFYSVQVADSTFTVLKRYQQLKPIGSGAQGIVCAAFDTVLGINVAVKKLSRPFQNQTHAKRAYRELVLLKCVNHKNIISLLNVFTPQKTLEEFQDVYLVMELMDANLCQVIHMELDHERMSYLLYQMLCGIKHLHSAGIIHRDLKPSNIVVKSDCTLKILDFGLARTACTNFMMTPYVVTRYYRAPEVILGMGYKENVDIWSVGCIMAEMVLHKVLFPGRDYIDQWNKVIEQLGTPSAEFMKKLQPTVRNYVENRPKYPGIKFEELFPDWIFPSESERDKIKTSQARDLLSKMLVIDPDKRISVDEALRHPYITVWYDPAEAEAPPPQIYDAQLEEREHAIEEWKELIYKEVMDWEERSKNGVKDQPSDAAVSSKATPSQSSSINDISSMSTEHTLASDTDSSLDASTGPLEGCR

RAW264.7 [29] = test: Antiinflammatory activity in mouse RAW264.7 cells assessed as inhibition of LPS-induced NO production at 20 uM incubated for 24 hrs relative to control; type: functional
[30] = Cytotoxicity against mouse RAW264.7 cells assessed as cell viability at 20 uM incubated for 24 hrs by CCK8 assay relative to control; type: toxicity, cell-based; settings: read-out: Activity
Mus musculus [31] = test: Antiinflammatory activity against DSS-induced ulcerative colitis C57BL/6J mouse model assessed as reduction in DAI score at 15 mg/kg, po administered for 8 days; type: functional, organism-based; settings: time 8.0 day
RAW264.7 [32] = test: Antiinflammatory activity in LPS-induced mouse RAW264.7 cells assessed as reduction in IL-6 gene expression by heat map analysis; type: functional, cell-based
Mus musculus [33] = test: Effect on DSS-induced body weight loss in ulcerative colitis male C57BL/6J mouse model at 100 mg/kg, po administered for 8 days; type: functional, organism-based; settings: time 8.0 day

- inhibition [2]: Active
- IC50 (RAW264.7 [27]): 900 nM
- inhibition [28]: Active
Compound: C=C1C(=O)O[C@]2(C)CC[C@@H]1C[C@@H]1O[C@@]1(C)CC/C=C(\C)CCC2=O
- inhibition (RAW264.7 [1]): inactive
- Activity (RAW264.7 [3]): Active
- Activity (Mus musculus [4]): Active
- Activity (Mus musculus [5]): Active
- Activity (RAW264.7 [6]): Active
- Activity (Mus musculus [7]): Active
- Activity (Mus musculus [8]): Active
- Activity (RAW264.7 [9]): Active
- inhibition (RAW264.7 [10]): Active
- Activity (Mus musculus [11]): Active
- Activity (RAW264.7 [12]): Active
- Activity (RAW264.7 [13]): Active
- Activity (Mus musculus [14]): Active
- Activity (Mus musculus [15]): Active
- Activity (Mus musculus [16]): Active
- Activity (Mus musculus [17]): Active
- Activity (RAW264.7 [18]): Active
- Activity (Mus musculus [19]): Active
- inhibition (RAW264.7 [20]): Active
- Activity (RAW264.7 [21]): Active
- Activity (Mus musculus [22]): inactive
- Activity (RAW264.7 [23]): Active
- Activity (Mus musculus [24]): Active
- Activity (RAW264.7 [25]): Active
- Activity (RAW264.7 [26]): Active
- inhibition at 20 µM (RAW264.7 [29]): 134%
- viability at 24 h, 20 µM [30]: 82.7%
- Activity (Mus musculus [31]): Active
- Activity (RAW264.7 [32]): Active

Compound: Nc1ccc(O)c(C(=O)O)c1
- Activity (Mus musculus [33]): inactive

Reference: ChEMBL document CHEMBL5523736, “The First Discovery of Marine Polyoxygenated Cembranolides as Potential Agents for the Treatment of Ulcerative Colitis” (J Med Chem, 2024)
